Data reported in US20260022142A1, “MACROCYCLIC IMMUNOMODULATORS” (Bristol-Myers Squibb Company, priority 2022, published 2026).
Bridge positions count the residues as written; N and C are the ends. Square brackets hold non-standard residues; d marks the D form. Peptide text beside a SMILES is read from it. * marks the point of attachment. Phe(4-COOH) = N[C@@H](Cc1ccc(C(=O)O)cc1)C(=O)O; Bip = N[C@@H](Cc1ccc(-c2ccccc2)cc1)C(=O)O; Phe(3-Me) = Cc1cccc(C[C@H](N)C(=O)O)c1; Cha = N[C@@H](CC1CCCCC1)C(=O)O; Carboxymethyl = O=C(O)C*; Orn = NCCC[C@H](N)C(=O)O; Aun = NCCCCCCCCCCC(=O)O; Dab = NCC[C@H](N)C(=O)O; Dap = NC[C@H](N)C(=O)O; AEEA = NCCOCCOCC(=O)O

Target: T1, PD-1/PD-L1 interaction (PE-labeled human PD-L1-Ig binding to Jurkat cell line over-expressing human PD-1) (Homo sapiens, UniProt Q15116)
T1 construct: expressed in transfected cells; host or cells: Jurkat
T1 sequence (Q15116 25-288): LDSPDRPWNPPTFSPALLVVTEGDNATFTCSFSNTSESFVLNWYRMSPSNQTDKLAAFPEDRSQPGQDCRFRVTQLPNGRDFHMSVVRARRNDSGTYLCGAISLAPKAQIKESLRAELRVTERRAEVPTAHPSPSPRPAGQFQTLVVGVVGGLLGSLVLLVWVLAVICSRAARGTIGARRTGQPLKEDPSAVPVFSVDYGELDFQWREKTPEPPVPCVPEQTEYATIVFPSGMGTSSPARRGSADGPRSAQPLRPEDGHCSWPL
Test: Jurkat-PD-1 Cell Binding High-Content Screening Assay (CBA)
Assay type: cell-based
Settings: Jurkat cell line over-expressing human PD-1; PE-labeled PD-L1-Ig 20 nM final; read-out: Jurkat hPD1-PDL1 IC50
Summary of the method: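 Read-out is high-content imaging of cell-bound phycoerythrin-tagged PD-L1-Ig on fixed, Hoechst-counterstained Jurkat cells that over-express human PD-1. Compound exposure lasts 2 h at 37° C before the labeled ligand (20 nM final) is added for a further hour.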

Row | SMILES | IC50 [nM]
1 | Cc1cccc(C[C@@H]2NC(=O)[C@H](CC(=O)O)NC(=O)[C@H](Cc3ccc(OCC(=O)O)cc3)NC(=O)[C@H](CN)NC(=O)CSC[C@@H](C(=O)NCCOCCOCC(=O)N[C@@H](CCN)C(=O)NCCCCCCCCCCC(=O)O)NC(=O)[C@H](CCCNC(=N)N)NC(=O)[C@H](C(C)C)NC(=O)[C@H](CC3CCCCC3)NC(=O)[C@H](CCN)NC(=O)[C@@H](CC(C)C)NC(=O)[C@H](CCCN)NC(=O)[C@H](C(C)C)NC(=O)[C@H](Cc3ccc(-c4ccccc4)cc3)NC(=O)[C@H](C(C)C)NC2=O)c1 [Compound 2544] ({CH2CO}-[Dap]Y(Carboxymethyl)D[Phe(3-Me)]V[Bip]V[Orn][dL][Dab][Cha]VRC[AEEA][Dab][Aun]-OH; thioether N-14) | 10.7
2 | CC(C)C[C@H]1NC(=O)[C@H](CCCN)NC(=O)[C@H](C(C)C)NC(=O)[C@H](Cc2ccc(-c3ccccc3)cc2)NC(=O)[C@H](C(C)C)NC(=O)[C@H](Cc2c[nH]c3ccccc23)NC(=O)[C@H](CC(=O)O)NC(=O)[C@H](Cc2ccc(OCC(=O)O)cc2)NC(=O)[C@H](Cc2ccc(OCC(=O)O)cc2)NC(=O)CSC[C@@H](C(=O)NCCOCCOCC(=O)N[C@@H](CCN)C(=O)NCCCCCCCCCCC(=O)O)NC(=O)[C@H](CCCN)NC(=O)[C@H](C(C)C)NC(=O)[C@H](CC2CCCCC2)NC(=O)[C@H](CCN)NC1=O [Compound 2545] ({CH2CO}-Y(Carboxymethyl)Y(Carboxymethyl)DWV[Bip]V[Orn][dL][Dab][Cha]V[Orn]C[AEEA][Dab][Aun]-OH; thioether N-14) | 7.4
3 | CC(C)C[C@H]1NC(=O)[C@H](CCCN)NC(=O)[C@H](C(C)C)NC(=O)[C@H](Cc2ccc(-c3ccccc3)cc2)NC(=O)[C@H](C(C)C)NC(=O)[C@H](Cc2c[nH]c3ccccc23)NC(=O)[C@H](CC(=O)O)NC(=O)[C@H](Cc2ccc(OCC(=O)O)cc2)NC(=O)[C@H](Cc2ccc(OCC(=O)O)cc2)NC(=O)CSC[C@@H](C(=O)NCCOCCOCC(=O)N[C@@H](CCN)C(=O)NCCCCCCCCCCC(=O)O)NC(=O)[C@H](CN)NC(=O)[C@H](C(C)C)NC(=O)[C@H](CC2CCCCC2)NC(=O)[C@H](CCN)NC1=O [Compound 2546] ({CH2CO}-Y(Carboxymethyl)Y(Carboxymethyl)DWV[Bip]V[Orn][dL][Dab][Cha]V[Dap]C[AEEA][Dab][Aun]-OH; thioether N-14) | 13.3
4 | CC(C)C[C@H]1NC(=O)[C@H](CCCN)NC(=O)[C@H](C(C)C)NC(=O)[C@H](Cc2ccc(-c3ccccc3)cc2)NC(=O)[C@H](C(C)C)NC(=O)[C@H](Cc2c[nH]c3ccccc23)NC(=O)[C@H](CC(=O)O)NC(=O)[C@H](Cc2ccc(C(=O)O)cc2)NC(=O)[C@H](Cc2ccc(OCC(=O)O)cc2)NC(=O)CSC[C@@H](C(=O)N[C@@H](CCN)C(=O)NCCOCCOCC(=O)NCCCCCCCCCCC(=O)O)NC(=O)[C@H](CCCCN)NC(=O)[C@H](C(C)C)NC(=O)[C@H](CC2CCCCC2)NC(=O)[C@H](CCN)NC1=O [Compound 2547] ({CH2CO}-Y(Carboxymethyl)[Phe(4-COOH)]DWV[Bip]V[Orn][dL][Dab][Cha]VKC[Dab][AEEA][Aun]-OH; thioether N-14) | 31.9
5 | CC(C)C[C@H]1NC(=O)[C@H](CCCN)NC(=O)[C@H](C(C)C)NC(=O)[C@H](Cc2ccc(-c3ccccc3)cc2)NC(=O)[C@H](C(C)C)NC(=O)[C@H](Cc2c[nH]c3ccccc23)NC(=O)[C@H](CC(=O)O)NC(=O)[C@H](Cc2ccc(OCC(=O)O)cc2)NC(=O)[C@H](Cc2ccc(OCC(=O)O)cc2)NC(=O)CSC[C@@H](C(=O)N[C@@H](CCN)C(=O)NCCOCCOCC(=O)NCCCCCCCCCCC(=O)O)NC(=O)[C@H](CCCNC(=N)N)NC(=O)[C@H](C(C)C)NC(=O)[C@H](CC2CCCCC2)NC(=O)[C@H](CCN)NC1=O [Compound 2548] ({CH2CO}-Y(Carboxymethyl)Y(Carboxymethyl)DWV[Bip]V[Orn][dL][Dab][Cha]VRC[Dab][AEEA][Aun]-OH; thioether N-14) | 11.6
